{
  "source": "patent US20090022806A1",
  "about": "“Nanoparticle and polymer formulations for thyroid hormone analogs, antagonists and formulations and uses thereof” (priority 2006, published 2009)",
  "key": {"[1]": {"tested_on": "phosphorylated ERK1/2 in ECV304 endothelial cells", "test": "MAPK (ERK1/2) activation in ECV304 cells, nuclear pERK1/2 immunoblot", "assay_type": "cell-based", "details": "T4 10^−7 mol/L, 15 minutes to 6 hours", "description": "ECV304 endothelial cells were cultured in M199 medium with 0.25% hormone-depleted serum 13 for 2 days. […] Nuclear fractions were pre-pared from all samples by our method reported previously, the proteins separated by polyacrylamide gel electrophoresis, and transferred to membranes for immunoblotting with antibody to phosphorylated ERK 1/2."}, "[2]": {"tested_on": "chick chorioallantoic membrane (CAM)", "test": "Chick chorioallantoic membrane (CAM) assay of angiogenesis", "assay_type": "in vivo", "details": "10^−7-10^−9 M", "description": "Chorioallantoic membrane (CAM) Model of Angiogenesis: In vivo Neovascularization was examined by methods described previously. 9-12 Ten-day-old chick embryos were purchased from SPAFAS (Preston, Conn.) and incubated at 37° C. with 55% relative humidity. A hypodermic needle was used to make a small hole in the shell concealing the air sac, and a second hole was made on the broad side of the egg, directly over an avascular portion of the embryonic membrane that was identified by candling. A false air sac was created beneath the second hole by the application of negative pressure at the first hole, causing the CAM to separate from the shell. A window approximately 1.0 cm 2 was cut in the shell over the dropped CAM with a small-crafts grinding wheel (Dremel, division of Emerson Electric Co.), allowing direct access to the underlying CAM. FGF2 (1 μg/mL) was used as a standard proangiogenic agent to induce new blood vessel branches on the CAM of 10-day-old embryos. Sterile disks of No. 1 filter paper (Whatman International) were pretreated with 3 mg/mL cortisone acetate and 1 mmol/L PTU and air dried under sterile conditions. Thyroid hormone, hormone analogues, FGF2 or control solvents, and inhibitors were then applied to the disks and the disks allowed to dry. The disks were then suspended in PBS and placed on growing CAMs. […] At 24 hours, the MAPK cascade inhibitor PD 98059 was also added to CAMs topically by means of the filter disks.\nAfter incubation at 37° C. with 55% relative humidity for 3 days, the CAM tissue directly beneath each filter disk was resected from control and treated CAM samples. Tissues were washed 3× with PBS, placed in 35-mm Petri dishes (Nalge Nunc), and examined under an SV6 stereomicroscope (Zeiss) at ×50 magnification. Digital images of CAM sections exposed to filters were collected using a 3-charge-coupled device color video camera system (Toshiba) and analyzed with Image-Pro software (Media Cybernetics). The number of vessel branch points contained in a circular region equal to the area of each filter disk were counted. One image was counted in each CAM preparation, and findings from 8 to 10 CAM preparations were analyzed for each treatment condition (thyroid hormone or analogues, FGF2, FGF2 antibody, PD 98059). In addition, each experiment was performed 3 times. The resulting angiogenesis index is the mean±SEM of new branch points in each set of samples.\nTen-day-old chick embryos were purchased £tom SPAFAS (Preston, Conn.) and were incubated at 37° C. with 55% relative humidity. A hypodermic needle was used to make a small hole in the blunt end of the egg and a second hole was made on the broad side of the egg, directly over an avascular portion of the embryonic membrane. Mild suction was applied to the first hole to displace the air sac and drop the CAM away from the shell. Using a Dremel model craft drill (Dremel, Racine, Wis.), a approx. 1.0 cm^2 window was cut in the shell over the false air sac, allowing access to the CAM. Sterile disks of No. 1 filter paper (Whatman, Clifton, N.J.) were pretreated with 3 mg/ml cortisone acetate and 1 mMm propylthiouracil and air dried under sterile conditions. […] The disks were then suspended in PBS and placed on growing CAMS. After incubation for 3 days, the CAM beneath the filter disk was resected and rinsed with PBS. Each membrane was placed in a 35 mm Petri dish and examined under an SV6 stereo-microscope at 50× magnification. Digital images were captured and analyzed with Image-Pro software (Mediacybemetics). The number of vessel branch points contained in a circular region equal to the filter disk were counted. One image from each of 8-10 CAM preparations for each treatment condition was counted, and in addition each experiment was performed 3 times.\nTen-day-old chick embryos were purchased from SPAFAS (Preston, Conn.) and were incubated at 37° C. with 55% relative humidity. Chick CAM assays were performed as previously described."}, "purified αVβ3 integrin": {"target": "T1, purified αVβ3 integrin (Homo sapiens, UniProt P05106+P06756)", "T1 construct": "purchased", "T1 sequence (P06756 31-889 limits assumed)": "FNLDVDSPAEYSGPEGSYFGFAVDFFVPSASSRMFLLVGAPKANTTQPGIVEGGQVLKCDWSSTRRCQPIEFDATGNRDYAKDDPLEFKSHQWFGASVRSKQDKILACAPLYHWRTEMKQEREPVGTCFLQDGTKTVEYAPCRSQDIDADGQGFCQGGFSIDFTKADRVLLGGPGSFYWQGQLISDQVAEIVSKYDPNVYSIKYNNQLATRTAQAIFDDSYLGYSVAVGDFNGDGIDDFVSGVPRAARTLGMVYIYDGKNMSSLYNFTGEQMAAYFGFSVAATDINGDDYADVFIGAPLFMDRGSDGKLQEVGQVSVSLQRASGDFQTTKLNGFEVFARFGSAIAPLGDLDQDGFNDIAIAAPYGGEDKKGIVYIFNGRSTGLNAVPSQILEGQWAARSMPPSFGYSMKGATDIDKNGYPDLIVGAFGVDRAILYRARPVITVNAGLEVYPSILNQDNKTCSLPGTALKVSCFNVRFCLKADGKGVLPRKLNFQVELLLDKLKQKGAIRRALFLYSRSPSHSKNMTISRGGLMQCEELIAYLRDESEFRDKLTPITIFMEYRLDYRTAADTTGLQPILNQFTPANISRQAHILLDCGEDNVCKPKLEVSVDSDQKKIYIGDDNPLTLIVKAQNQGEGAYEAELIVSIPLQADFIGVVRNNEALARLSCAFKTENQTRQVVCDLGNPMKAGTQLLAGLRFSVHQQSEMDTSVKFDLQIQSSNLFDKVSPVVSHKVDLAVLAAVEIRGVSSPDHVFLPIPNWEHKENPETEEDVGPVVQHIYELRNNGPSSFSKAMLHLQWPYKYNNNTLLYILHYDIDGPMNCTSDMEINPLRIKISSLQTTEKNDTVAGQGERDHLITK", "T1 sequence (P06756 891-1048 partner limits assumed)": "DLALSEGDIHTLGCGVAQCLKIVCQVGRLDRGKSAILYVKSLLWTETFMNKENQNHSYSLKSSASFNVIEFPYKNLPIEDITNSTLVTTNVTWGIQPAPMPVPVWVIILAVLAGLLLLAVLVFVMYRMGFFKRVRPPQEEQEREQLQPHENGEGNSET", "T1 sequence (P05106 27-788)": "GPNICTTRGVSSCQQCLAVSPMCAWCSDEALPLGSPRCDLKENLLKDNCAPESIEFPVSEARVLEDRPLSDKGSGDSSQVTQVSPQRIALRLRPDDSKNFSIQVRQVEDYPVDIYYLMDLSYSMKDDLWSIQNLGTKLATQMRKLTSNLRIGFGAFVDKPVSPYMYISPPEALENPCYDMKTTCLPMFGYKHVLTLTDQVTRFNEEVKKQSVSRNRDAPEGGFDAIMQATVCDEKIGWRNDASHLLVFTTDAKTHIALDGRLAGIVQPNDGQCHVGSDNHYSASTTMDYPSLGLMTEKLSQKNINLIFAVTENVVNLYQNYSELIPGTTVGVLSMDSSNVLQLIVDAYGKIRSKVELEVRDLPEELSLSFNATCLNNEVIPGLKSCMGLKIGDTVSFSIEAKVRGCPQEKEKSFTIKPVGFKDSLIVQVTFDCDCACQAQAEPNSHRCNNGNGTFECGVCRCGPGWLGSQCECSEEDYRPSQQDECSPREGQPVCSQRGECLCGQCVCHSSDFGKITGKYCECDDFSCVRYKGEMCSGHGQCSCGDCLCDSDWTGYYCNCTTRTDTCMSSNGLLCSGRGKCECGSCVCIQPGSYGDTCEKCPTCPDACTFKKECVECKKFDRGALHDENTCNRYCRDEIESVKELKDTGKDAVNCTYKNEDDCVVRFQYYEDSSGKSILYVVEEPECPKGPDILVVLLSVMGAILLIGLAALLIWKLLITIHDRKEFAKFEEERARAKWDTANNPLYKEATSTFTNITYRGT", "test": "Radioligand binding assay, [125I]-T4 to purified integrin", "description": "Two μg of purified αVβ3 was mixed with indicated concentrations of test compounds and allowed to incubate for 30 min at room temperature. […] The samples were mixed with sample buffer (50% glycerol, 0.1M Tris-HCl, pH 6.8, and bromophenol blue) and runout on a 5% basic-native gel for 24 h at 45 mA in the cold. The apparatus was disassembled and the gels were placed on filter paper, wrapped in plastic wrap, and exposed to film. Band intensity was determined using the VersaDoc 5000 Imaging system."}},
  "data": [
    {"molecule": "N[C@@H](Cc1cc(I)c(Oc2cc(I)c(O)c(I)c2)c(I)c1)C(=O)O", "note": "[T4, L-thyroxine]", "values": [
      {"measurement": "time of maximal phosphorylation and nuclear translocation of ERK1/2", "setting": "[1]", "value": 30, "unit": "min"},
      {"measurement": "promotion of generation of new blood vessels from existing vessels", "setting": "[2]", "value": "two- to three-fold"},
      {"measurement": "reduction of [125I]T4 binding to purified αVβ3", "setting": "purified αVβ3 integrin; competitor 10^−4 M", "value": "almost completely displaced"},
      {"measurement": "reduction of [125I]T4 binding to purified αVβ3", "setting": "purified αVβ3 integrin; competitor 10^−5 M", "value": "maximal"},
      {"measurement": "reduction of [125I]T4 binding to purified αVβ3", "setting": "purified αVβ3 integrin; competitor 10^−6 M (total)", "value": 58, "unit": "%"},
      {"measurement": "reduction of [125I]T4 binding to purified αVβ3", "setting": "purified αVβ3 integrin; competitor 10^−7 M (total)", "value": 13, "unit": "%"},
      {"measurement": "EC50", "setting": "purified αVβ3 integrin; non-linear regression", "value": 0.371, "unit": "nM"},
      {"measurement": "Kd", "setting": "purified αVβ3 integrin; non-linear regression", "value": 0.333, "unit": "nM"}
    ]}
  ]
}
